# Target: T1, AbHEMC (porphobilinogen deaminase, PBGD) (Ananas comosus, UniProt A0A1B2LUE6)
# T1 construct: gene hemC; E. coli Rosetta-gami (DE3); about 45 kD on SDS-PAGE
# Assay: in vitro PBGD activity assay (method of Lee et al. […])
# Format: biochemical
# Conditions: recombinant fusion protein; substrate inferred from the named PBGD activity, assay conditions not given
# T1 sequence (A0A1B2LUE6 entry or part of it): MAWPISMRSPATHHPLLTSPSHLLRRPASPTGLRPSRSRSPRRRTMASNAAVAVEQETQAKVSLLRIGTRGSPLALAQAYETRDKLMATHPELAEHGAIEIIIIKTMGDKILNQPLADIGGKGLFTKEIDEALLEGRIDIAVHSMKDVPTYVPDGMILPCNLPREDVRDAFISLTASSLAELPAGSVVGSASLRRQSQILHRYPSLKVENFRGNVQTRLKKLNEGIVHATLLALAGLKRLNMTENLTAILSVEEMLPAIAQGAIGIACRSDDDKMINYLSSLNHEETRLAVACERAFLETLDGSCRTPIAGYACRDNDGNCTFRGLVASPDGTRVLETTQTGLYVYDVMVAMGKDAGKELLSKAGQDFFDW
smiles,measurement,value
NCc1[nH]cc(CCC(=O)O)c1CC(=O)O [porphobilinogen],in vitro PBGD activity assay (method of Lee et al. 1992),in vitro analysis showed that the prokaryotic-expressed AbHEMC protein had PBGD activity
